# Key:
# CFTR = CFTR currents in Xenopus oocytes expressing CFTR alone (control without receptor); type: cell-based; parameters: dose or concentration left out as unconfirmed; settings: betamethasone valerate, bullet application, n=4
# Experimental: In the present invention, oocytes are harvested from Xenopus laevis as previously described (Quick and Lester, 1994; Smith et al., 1997). Oocytes were injected with a cocktail of T3-driven hSN138 cDNA, T3-RNA polymerase and dNTP with or without T3-driven CFTR cDNA directly into the cytoplasm as previously described (Geib et al., 2001). After 2 days of incubation at 15° C., dual electrode voltage clamp was performed using 3 M KCl-filled glass microelectrodes with resistances of 1-2 MΩ. Unless otherwise specified, oocytes were voltage-clamped at a holding potential of −80 mV. During recordings, oocytes were bathed in continuously flowing (1-3 ml/min) medium containing 96 mM NaCl, 2 mM KCl, 1.8 mM CaCl2, and 5 mM HEPES, pH 7.5 (ND96 Buffer). Drugs were applied by local perfusion from a […] glass capillary tube at a distance of 0.5 mm from the oocyte. Heterologous expression of GPCRs in Xenopus oocytes has been widely used to determine the identity of signaling pathways activated by agonist stimulation. CFTR channel activity is heavily regulated by the cytosolic levels of cyclic AMP which can be increased by activation of GS-coupled adenylyl cyclase (AC). Therefore, activation of GS-coupled AC pathway is assayed by applying test compound in ND96 solution to oocytes and observing the changes of inward CFTR currents at a holding potential of −80 mV.
# [1] = target: T1, hSN138 (human SNORF138 receptor) (Homo sapiens, UniProt Q8TDU6); test: Activation of CFTR currents in Xenopus oocytes expressing both hSN138 and CFTR (dual electrode voltage clamp); type: cell-based; parameters: dose or concentration left out as unconfirmed; settings: betamethasone valerate, bullet application, holding potential -80 mV, n=8
# T1 construct: expressed in transfected cells; host or cells: Xenopus laevis oocytes (cytoplasmic injection of T3-driven cDNA with T3 RNA polymerase)
# T1 sequence (Q8TDU6 1-330): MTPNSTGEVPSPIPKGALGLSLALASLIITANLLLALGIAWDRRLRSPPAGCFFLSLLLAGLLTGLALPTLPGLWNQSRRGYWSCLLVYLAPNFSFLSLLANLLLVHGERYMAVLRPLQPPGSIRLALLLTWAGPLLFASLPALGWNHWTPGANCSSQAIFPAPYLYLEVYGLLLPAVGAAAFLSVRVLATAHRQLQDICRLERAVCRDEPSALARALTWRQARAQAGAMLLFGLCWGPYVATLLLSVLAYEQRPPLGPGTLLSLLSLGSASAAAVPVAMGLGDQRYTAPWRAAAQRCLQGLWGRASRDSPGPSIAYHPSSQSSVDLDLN
# Experimental: Oocytes were injected with a cocktail of T3-driven hSN138 cDNA, T3-RNA polymerase and dNTP with or without T3-driven CFTR cDNA directly into the cytoplasm as previously described (Geib et al., 2001). After 2 days of incubation at 15° C., dual electrode voltage clamp was performed using 3 M KCl-filled glass microelectrodes with resistances of 1-2 MΩ. Unless otherwise specified, oocytes were voltage-clamped at a holding potential of −80 mV. During recordings, oocytes were bathed in continuously flowing (1-3 ml/min) medium containing 96 mM NaCl, 2 mM KCl, 1.8 mM CaCl2, and 5 mM HEPES, pH 7.5 (ND96 Buffer). Drugs were applied by local perfusion from a 10 ml glass capillary tube at a distance of 0.5 mm from the oocyte. […] CFTR channel activity is heavily regulated by the cytosolic levels of cyclic AMP which can be increased by activation of GS-coupled adenylyl cyclase (AC). Therefore, activation of GS-coupled AC pathway is assayed by applying test compound in ND96 solution to oocytes and observing the changes of inward CFTR currents at a holding potential of −80 mV.
smiles,measurement,setting,value
"CCCCC(=O)O[C@]1(C(=O)CO)[C@@H](C)C[C@H]2[C@@H]3CCC4=CC(=O)C=C[C@]4(C)[C@@]3(F)[C@@H](O)C[C@@]21C [betamethasone valerate, fluoro-11b,17,21-trihydroxy-16b-methylpregna-1,4-diene-3,20-dione 17-valerate]",changes in CFTR currents,CFTR,no significant changes
same,increase of CFTR currents,[1],9.2±1.9 nA

# — US20040214237A1, “DNA encoding SNORF138 and uses thereof” (Synaptic Pharmaceutical Corporation, priority 2002, published 2004)
